Experimental data published in article PMC5421785, “Citrullination only infrequently impacts peptide binding to HLA class II MHC” (PLoS ONE, 2017).
Where two headings read alike, the source gives them in different places. Square brackets hold non-standard residues; d marks the D form. Peptide text beside a SMILES is read from it. Cit = NC(=O)NCCC[C@H](N)C(=O)O

Columns and labels:
[1] = biological target: T1, HLA-DRB1*01:01 (Homo sapiens, UniProt P01903+P01911, A100R/D57E/F55L/F60I/F76Y/I96L/L162R/M171V/P40L/Q125E/R42F/V115G/Y59C); experiment: HLA class II peptide binding, inhibition of radiolabeled peptide binding to purified MHC
T1 construct: EBV transformed homozygous cell lines were used as sources of MHC molecules; endogenous in cells; host or cells: EBV transformed homozygous cell lines

[2] = biological target: T2, HLA-DRB1*04:01 (Homo sapiens, UniProt P01903+P01911, A100K/A169T/F76Y/I96L/K127E/L162R/M171V/N62H/P40V/Q125Y/R42H/S133A/S149N/S66Y/V115G/V209L/W38E); experiment: as above
T2 construct: EBV transformed homozygous cell lines were used as sources of MHC molecules; endogenous in cells; host or cells: EBV transformed homozygous cell lines

[3] = citrullinated 15-mer (X), purified MHC, inhibition of radiolabeled peptide binding, dash = IC50 >40,000 nM, read-out: DRB1*01:01 binding capacity, Cit peptide (IC50 nM)
[4] = citrullinated 15-mer (X), purified MHC, inhibition of radiolabeled peptide binding, dash = IC50 >40,000 nM, read-out: DRB1*04:01 binding capacity, Cit peptide (IC50 nM)
[5] = citrullinated peptide as listed (X at Cit position), read-out: DRB1*01:01 binding capacity Cit peptide (IC50 nM)
[6] = value of the wild-type (non-citrullinated) counterpart of the listed peptide, read-out: DRB1*01:01 binding capacity WT peptide (IC50 nM)
[7] = citrullinated peptide as listed (X at Cit position), read-out: DRB1*04:01 binding capacity Cit peptide (IC50 nM)
[8] = citrullinated 15-mer peptide (X = citrulline), purified HLA-DRB1*01:01, read-out: DRB1*01:01 binding capacity, Cit peptide (IC50 nM)
[9] = citrullinated 15-mer peptide (X = citrulline), purified HLA-DRB1*04:01, read-out: DRB1*04:01 binding capacity, Cit peptide (IC50 nM)
[10] = value of the wild-type (non-citrullinated) counterpart of the listed peptide, read-out: DRB1*04:01 binding capacity WT peptide (IC50 nM)

IC50 [1, 3] [nM] | IC50 [2, 4] [nM] | IC50 [1, 5] [nM] | IC50 [2, 7] [nM] | SMILES | further results
12 | 1550 | – | – | CC(C)C[C@H](NC(=O)[C@H](C)NC(=O)[C@H](CO)NC(=O)CN)C(=O)N[C@@H](CCCNC(N)=O)C(=O)N1CCC[C@H]1C(=O)N[C@@H](CO)C(=O)N[C@H](C(=O)N[C@@H](CO)C(=O)N[C@@H](CCCNC(=N)N)C(=O)N[C@@H](CO)C(=O)N[C@@H](CC(C)C)C(=O)N[C@@H](Cc1ccc(O)cc1)C(=O)N[C@@H](C)C(=O)N[C@@H](CO)C(=O)O)[C@@H](C)O [GSALXPSTSRSLYAS] | –
541 | 918 | – | – | CC(C)C[C@H](NC(=O)[C@H](CO)NC(=O)[C@H](Cc1ccccc1)NC(=O)[C@H](CC(=O)O)NC(=O)[C@@H](NC(=O)[C@H](CO)NC(=O)[C@H](CC(=O)O)NC(=O)[C@H](CCC(N)=O)NC(=O)[C@H](CC(C)C)NC(=O)[C@H](CC(C)C)NC(=O)[C@H](CCCNC(N)=O)NC(=O)[C@@H](NC(=O)CN)C(C)C)C(C)C)C(=O)N[C@@H](C)C(=O)N[C@@H](CC(=O)O)C(=O)O [GVXLLQDSVDFSLAD] | –
935 | 23500 | – | – | CC[C@H](C)[C@H](N)C(=O)N[C@@H](CC(=O)O)C(=O)N[C@H](C(=O)N[C@@H](CC(=O)O)C(=O)N[C@H](C(=O)N[C@@H](CO)C(=O)N[C@@H](CCCCN)C(=O)N1CCC[C@H]1C(=O)N[C@@H](CC(=O)O)C(=O)N[C@@H](CC(C)C)C(=O)N[C@H](C(=O)N[C@@H](C)C(=O)N[C@@H](C)C(=O)N[C@@H](CC(C)C)C(=O)N[C@@H](CCCNC(N)=O)C(=O)O)[C@@H](C)O)C(C)C)C(C)C [IDVDVSKPDLTAALX] (H-IDVDVSKPDLTAAL[Cit]-OH) | –
– | – | 0.6 | 849 | CC[C@H](C)[C@H](N)C(=O)N[C@@H](CCCNC(=N)N)C(=O)N[C@@H](C)C(=O)N[C@@H](CCC(=O)O)C(=O)NCC(=O)N[C@@H](CC(N)=O)C(=O)N[C@@H](CO)C(=O)N[C@@H](CCCNC(N)=O)C(=O)N[C@@H](Cc1ccccc1)C(=O)N[C@H](C(=O)N[C@@H](Cc1ccc(O)cc1)C(=O)N[C@H](C(=O)N[C@@H](C)C(=O)N[C@@H](CC(C)C)C(=O)N[C@@H](CCCCN)C(=O)O)[C@@H](C)O)[C@@H](C)O [IRAEGNSXFTYTALK] (H-IRAEGNS[Cit]FTYTALK-OH) | IC50 [1, 6]: 1.3 nM
– | – | – | – | CC[C@H](C)[C@H](N)C(=O)N[C@@H](CO)C(=O)N[C@@H](CC(C)C)C(=O)N1CCC[C@H]1C(=O)N[C@@H](CC(C)C)C(=O)N1CCC[C@H]1C(=O)N[C@@H](CC(N)=O)C(=O)N[C@@H](Cc1ccccc1)C(=O)N[C@@H](CO)C(=O)N[C@@H](CO)C(=O)N[C@@H](CC(C)C)C(=O)N[C@@H](CC(N)=O)C(=O)N[C@@H](CC(C)C)C(=O)N[C@@H](CCCNC(N)=O)C(=O)N[C@@H](CCC(=O)O)C(=O)O [ISLPLPNFSSLNLXE] | IC50 [1, 8]: 309 nM; IC50 [2, 9]: 4480 nM
– | – | 0.62 | 2310 | CC[C@H](C)[C@H](N)C(=O)N[C@@H](CCCNC(N)=O)C(=O)N[C@@H](C)C(=O)N[C@@H](CCC(=O)O)C(=O)NCC(=O)N[C@@H](CC(N)=O)C(=O)N[C@@H](CO)C(=O)N[C@@H](CCCNC(=N)N)C(=O)N[C@@H](Cc1ccccc1)C(=O)N[C@H](C(=O)N[C@@H](Cc1ccc(O)cc1)C(=O)N[C@H](C(=O)N[C@@H](C)C(=O)N[C@@H](CC(C)C)C(=O)N[C@@H](CCCCN)C(=O)O)[C@@H](C)O)[C@@H](C)O [IXAEGNSRFTYTALK] (H-I[Cit]AEGNSRFTYTALK-OH) | IC50 [1, 6]: 1.3 nM; IC50 [2, 10]: 794 nM
– | – | – | – | CC(C)C[C@H](NC(=O)CNC(=O)[C@@H]1CCCN1C(=O)[C@H](C)NC(=O)CNC(=O)[C@@H]1CCCN1C(=O)[C@H](CC(C)C)NC(=O)CNC(=O)[C@H](CCCCN)NC(=O)[C@H](CCC(=O)O)NC(=O)CNC(=O)[C@H](C)NC(=O)[C@@H](N)CCCCN)C(=O)N[C@@H](CCCNC(N)=O)C(=O)NCC(=O)O [KAGEKGLPGAPGLXG] (H-KAGEKGLPGAPGL[Cit]G-OH) | IC50 [1, 8]: 578 nM; IC50 [2, 9]: > 40000 nM
– | – | 9.2 | 45 | CSCC[C@H](NC(=O)[C@H](Cc1ccc(O)cc1)NC(=O)[C@H](CCC(N)=O)NC(=O)[C@H](CC(C)C)NC(=O)[C@@H]1CCCN1C(=O)[C@H](CC(=O)O)NC(=O)[C@@H]1CCCN1C(=O)CNC(=O)[C@@H](N)CCCCN)C(=O)N[C@@H](CCCNC(N)=O)C(=O)N[C@@H](C)C(=O)N[C@@H](CC(=O)O)C(=O)N[C@@H](CCC(N)=O)C(=O)N[C@@H](C)C(=O)N[C@@H](C)C(=O)O [KGPDPLQYMXADQAA] (H-KGPDPLQYM[Cit]ADQAA-OH) | –
– | – | 634 | 7060 | CC[C@H](C)[C@H](NC(=O)[C@H](CC(=O)O)NC(=O)[C@H](CCSC)NC(=O)[C@@H]1CCCN1C(=O)[C@H](C)NC(=O)[C@@H](NC(=O)[C@H](CC(=O)O)NC(=O)[C@@H](NC(=O)[C@@H](NC(=O)[C@@H]1CCCN1C(=O)[C@H](CC(C)C)NC(=O)[C@H](CCCNC(N)=O)NC(=O)[C@H](CO)NC(=O)[C@@H](NC(=O)[C@@H](N)CCCCN)[C@@H](C)O)[C@@H](C)CC)[C@@H](C)CC)[C@@H](C)CC)C(=O)O [KTSXLPIIDIAPMDI] (H-KTS[Cit]LPIIDIAPMDI-OH) | IC50 [1, 6]: 361 nM; IC50 [2, 10]: 8750 nM
– | – | – | – | CC[C@H](C)[C@H](NC(=O)CNC(=O)[C@H](CCCNC(=N)N)NC(=O)[C@H](CCC(N)=O)NC(=O)CNC(=O)[C@H](C)NC(=O)[C@@H](N)CC(C)C)C(=O)N[C@H](C(=O)NCC(=O)N[C@@H](CC(C)C)C(=O)N1CCC[C@H]1C(=O)NCC(=O)N[C@@H](CCC(N)=O)C(=O)N[C@@H](CCCNC(N)=O)C(=O)NCC(=O)O)C(C)C [LAGQRGIVGLPGQXG] (H-LAGQRGIVGLPGQ[Cit]G-OH) | IC50 [1, 8]: 1.3 nM; IC50 [2, 9]: 5040 nM
– | – | – | – | CC[C@H](C)[C@H](NC(=O)CNC(=O)[C@H](CCCNC(N)=O)NC(=O)[C@H](CCC(N)=O)NC(=O)CNC(=O)[C@H](C)NC(=O)[C@@H](N)CC(C)C)C(=O)N[C@H](C(=O)NCC(=O)N[C@@H](CC(C)C)C(=O)N1CCC[C@H]1C(=O)NCC(=O)N[C@@H](CCC(N)=O)C(=O)N[C@@H](CCCNC(=N)N)C(=O)NCC(=O)O)C(C)C [LAGQXGIVGLPGQRG] (H-LAGQ[Cit]GIVGLPGQRG-OH) | IC50 [1, 8]: 13 nM; IC50 [2, 9]: 10500 nM
– | – | 54 | 17400 | CSCC[C@H](NC(=O)[C@H](CCC(N)=O)NC(=O)[C@@H](NC(=O)[C@H](CC(N)=O)NC(=O)[C@H](C)NC(=O)[C@@H](NC(=O)[C@H](CC(N)=O)NC(=O)[C@@H]1CCCN1C(=O)[C@H](C)NC(=O)[C@@H](N)CC(C)C)[C@@H](C)O)C(C)C)C(=O)N[C@H](C(=O)N[C@@H](Cc1ccccc1)C(=O)N[C@@H](CC(C)C)C(=O)N[C@@H](CCCNC(N)=O)C(=O)N[C@@H](CC(C)C)C(=O)O)[C@@H](C)O [LAPNTANVQMTFLXL] (H-LAPNTANVQMTFL[Cit]L-OH) | –
14800 | > 40000 | – | – | CSCC[C@H](NC(=O)[C@H](CCC(=O)O)NC(=O)[C@H](CCC(=O)O)NC(=O)[C@H](CCC(=O)O)NC(=O)[C@H](Cc1ccc(O)cc1)NC(=O)[C@H](CC(C)C)NC(=O)[C@H](CC(=O)O)NC(=O)CNC(=O)[C@@H](N)CC(C)C)C(=O)N[C@@H](CCCNC(=N)N)C(=O)N[C@@H](CCC(=O)O)C(=O)N[C@@H](CC(C)C)C(=O)N[C@@H](CCCNC(=N)N)C(=O)N[C@@H](CCCNC(N)=O)C(=O)N[C@@H](CCC(N)=O)C(=O)O [LGDLYEEEMRELRXQ] | –
12500 | > 40000 | – | – | CSCC[C@H](NC(=O)[C@H](CCC(=O)O)NC(=O)[C@H](CCC(=O)O)NC(=O)[C@H](CCC(=O)O)NC(=O)[C@H](Cc1ccc(O)cc1)NC(=O)[C@H](CC(C)C)NC(=O)[C@H](CC(=O)O)NC(=O)CNC(=O)[C@@H](N)CC(C)C)C(=O)N[C@@H](CCCNC(=N)N)C(=O)N[C@@H](CCC(=O)O)C(=O)N[C@@H](CC(C)C)C(=O)N[C@@H](CCCNC(N)=O)C(=O)N[C@@H](CCCNC(=N)N)C(=O)N[C@@H](CCC(N)=O)C(=O)O [LGDLYEEEMRELXRQ] | –
13800 | > 40000 | – | – | CSCC[C@H](NC(=O)[C@H](CCC(=O)O)NC(=O)[C@H](CCC(=O)O)NC(=O)[C@H](CCC(=O)O)NC(=O)[C@H](Cc1ccc(O)cc1)NC(=O)[C@H](CC(C)C)NC(=O)[C@H](CC(=O)O)NC(=O)CNC(=O)[C@@H](N)CC(C)C)C(=O)N[C@@H](CCCNC(N)=O)C(=O)N[C@@H](CCC(=O)O)C(=O)N[C@@H](CC(C)C)C(=O)N[C@@H](CCCNC(=N)N)C(=O)N[C@@H](CCCNC(=N)N)C(=O)N[C@@H](CCC(N)=O)C(=O)O [LGDLYEEEMXELRRQ] | –
– | – | 19700 | > 40000 | CSCC[C@H](NC(=O)[C@H](Cc1ccc(O)cc1)NC(=O)[C@H](CCC(N)=O)NC(=O)[C@H](CC(C)C)NC(=O)[C@@H]1CCCN1C(=O)[C@H](CC(=O)O)NC(=O)[C@@H]1CCCN1C(=O)CNC(=O)[C@H](CCCCN)NC(=O)[C@H](CCC(=O)O)NC(=O)[C@H](CCCNC(=N)N)NC(=O)[C@@H]1CCCN1C(=O)CNC(=O)[C@@H](N)CC(C)C)C(=O)N[C@@H](CCCNC(N)=O)C(=O)O [LGPREKGPDPLQYMX] (H-LGPREKGPDPLQYM[Cit]-OH) | IC50 [2, 10]: > 40000 nM
